In one test the test system is HrR3 in U87 glioma cells. The test can be described thus: PCR viral titer (ICP27 qPCR) of HrR3 in U87 glioma cells. In kind it is cell-based, HSV-1. The note with it: HrR3 MOI of 1, 48 hours. As to the method:
FIGS. 2A-2B contain charts that show the effect of nifuroxazide on replication of oHSV-1. (FIG. 2A) Indicated cells were infected with HrR3 viruses at MOI-0.1. Viruses were harvested at 48 hours post-infected and titrated in vero cells. Data are presented as mean SD, *P<0.05 vs corresponding vehicle treatment. (FIG. 2B) U87 or glio cells were treated with HrR3 at a MOI of 1 and indicated concentration of nifuroxazide for 48 hours. Total DNA was extracted and subjected to qPCR to detect HSV-1 using ICP27 primer. nifuroxazide mediated oHSV-1% increase was represented in the figure.
In this example, the effect of nifuroxazide on oHSV-1 anti-tumor efficacy was evaluated. oHSV-1 infected treated glioma cells were incubated with low concentration of nifuroxazide. Replication increased 27- and 40-fold with 0.5 μM nifuroxazide and 10 μM nifuroxazide treated U87 cells respectively. Similarly, virus replication increased 0.8- and 4.7-fold virus in 9L cells treated with 0.5 μM nifuroxazide and 10 μM nifuroxazide respectively (FIG. 2A).
Background: Real-time PCR tracks product formation cycle by cycle.

For the next test, the system named is MCF7 cells. Put plainly: MTT cytotoxicity assay, MCF7 cells. Format: cell-based. The note with it: Homo sapiens, 72 hours, read-out: Inhibitory concentration 50% (IC50). How it is done:
FIGS. 1A-1B are graphs that show an anti-tumor effect of nifuroxazide. (FIG. 1A) Cells were treated with indicated concentration of nifuroxazide for 72 hours. Cytotoxicity was measured by using MTT assay. (FIG. 1B) Subcutaneously U87 tumor bearing mice were peritoneally injected with indicated doses of nifuroxazide. Tumor size was measured using calipers at day 7 post nifuroxazide treatment.
In this example, the antitumor effect of nifuroxazide is evaluated in different tumor cells. Cells were treated with nifuroxazide for 72 hours (FIG. 1A). […] To verify the anti-tumor efficacy of nifuroxazide in vivo, animals with subcutaneous U87 tumor implants were injected in the peritoneum with vehicle, 1 mg/kg nifuroxazide and 50 mg/kg nifuroxazide. […] Tumor volume was reduced around 25% and 60% after 7 days treatment with 1 mg/kg nifuroxazide and 50 mg/kg nifuroxazide respectively (FIG. 1B).
Cells were seeded in a 96-well plate at a density of 1×104 (U87). After overnight incubation, cells were treated with only vehicle or indicated MOI of virus or indicated concentration of drugs or reagents. After 2 to 3 days of treatment cell viability was measured by MTT assay (Sigma, Canada) according to the manufacturer's instruction. […] After overnight incubation with lysis buffer, cell viability was measured at 595 nm using a plate reader (Envision 2103 Multilabel reader, Perkin Elmer).
Background: Tetrazolium dyes change colour on reduction, which living cells bring about.

The test system of another test is U87 cells. The test can be described thus: MTT cytotoxicity assay, U87 cells. Format: cell-based. The note with it: Homo sapiens, U-87 MG. As to the method: (FIG. 5A) U87 cells were treated with HrR3 at a MOI of 5 and indicated concentration of nifuroxazide for 6 hours. Extracted protein was then subjected to western blot assay. (FIG. 5B) U87 cells were treated with indicated concentration of HrR3 or nifuroxazide or stattic or in combination for 72 hours. Cytotoxicity was measured by MTT assay. (FIG. 5C) Relative mRNA level (2^−ΔΔCT) is shown. Data are presented as mean SD, *P<0.05 vs corresponding vehicle treatment.
Expression of key regulator of the Type1 interferon signaling, STAT1 and STAT3, was determined in nifuroxazide treated oHSV-1 infected U87 cells.

For another test, the system named is pSTAT1 (Tyr701). Put plainly: Western blot of STAT 1 / pSTAT1 (Tyr701) in BV2 microglia cells. Format: cell-based, mouse. How it is done:
BV2 cells were pre-treated with vehicle or C16 (1 μM) for 2 hours and then incubated with vehicle or oHSV-1 (G207) at an MOI of 1 or oHSV-1 and C16 combination for 24 hours. Total protein was harvested and subjected to western blot assay. β-actin expression was used for loading control (means±SE).
BV2 cells were treated with either vehicle or Lps (1 μg/ml) or Lps (1 μg/ml) with C16 (1 μM) for 24 hours. Total protein was harvested and subjected to western blot assay. β-actin expression was used for loading control (means±SE).
Total protein was harvested with sample buffer (125 mM Tris-HCL, 50% Glycerol, […] and 5% 2-mercaptoethanol) and boiled for 5 minutes. Protein samples were subjected to SDS-PAGE (8% gel), transferred to nitrocellulose membranes and blocked in 5% nonfat milk (Bio Rad) in TBS-Tween 20 (TBS-T) for 1 hour at room temperature. The membranes were then incubated with primary antibody against β-actin at 1:1000 (Cell Signaling, Danvers, Mass.) or anti-STAT1 antibody at 1:1000 (Cell Signaling, Danvers, Mass.) or anti-STAT3 antibody at 1:1000 (Cell Signaling, Danvers, Mass.) or anti-phospho STAT1 antibody (Tyr701) at 1:1000 (Cell Signaling, Danvers, Mass.) or anti-phospho STAT3 antibody (Tyr705) at 1:1500 (Cell Signaling, Danvers, Mass.) or anti-phosphor-eIF2a antibody (ser51) at 1:1000 (Cell Signaling, Danvers, Mass.) or anti-ICP27 antibody at 1:1000 (Abcam, Cambridge, Mass.) or anti-ICP4 antibody at 1:750 (Abcam, Cambridge, Mass.) for overnight at 4° C. The membranes were washed the next day with TBS-T three times and incubated with corresponding secondary antibody at 1:3000 (Perkim Elmer, Boston, Mass.), for 1 hour at room temperature. Membranes were washed with TBS-T three times before visualization using ECL reagent (Perkim Elmer, Boston, Mass.) and VersaDoc imaging system (Bio-Rad). Band density was measured by using ImageJ software (NIH, Bethesda, Md.).
A general note: A western blot detects proteins with antibodies after separation by electrophoresis.

pIC50: −log10 of the molar value. Like-named read-outs stand apart in the source and are kept apart here.

Consider `O=C(N/N=C/c1ccc([N+](=O)[O-])o1)c1ccc(O)cc1` [nifuroxazide, Benzoic acid, 4-hydroxy-, [(5-nitro-2-furanyl)metylene]hydrazide], for which the PCR viral titer entry in the test on HrR3 in U87 glioma cells was “dose dependent HrR3 replication enhancement”. Besides, the pIC50 in the test with MCF7 cells is around 4.70; with U87 cells (in combination with MOI of 1 HrR3, 72 hours, read-out: IC50, nifuroxazide dose in combination), around 5.40; with U87 cells (individual dose, 72 hours, MTT assay, read-out: Inhibitory concentration 50% (IC50)), around 4.70.

Regarding `O=C1Nc2ccc3ncsc3c2/C1=C/c1c[nH]cn1` [C16, 6,8-Dihydro-8-(1H-imidazol-5-ylmethylene)-7H-pyrrolo[2,3-g]benzothiazol-7-one], the “upregulation of pSTAT1 (Tyr701) induced by oHSV-1” value in the test on pSTAT1 (Tyr701) (C16 1 μM, G207 MOI of 1, 24 hours) is given as “significantly suppress the upregulation”. In addition, the “expression level of STAT 1” value in the test with pSTAT1 (Tyr701) (G207 infected microglial cells) is reported as “reduced after C16 treatment”. The “STAT 1 phosphorylation, LPS treated” value with pSTAT1 (Tyr701) (Lps 1 μg/ml, C16 1 μM, 24 hours) was “inhibition in STAT 1/3 phosphorylation”.

For the origin of these results see patent US20190307820A1, “COMPOSITIONS AND METHODS OF USING STAT1/3 INHIBITORS WITH ONCOLYTIC HERPES VIRUS” (priority 2016, published 2019).
